The values that follow come from PubChem BioAssay AID220 (DTP/NCI, 2004).

Structures are written as SMILES. “And” between values parts separate entries of the source, which are not always exact repeats. Identical values can stand only once. Inconclusive results are not listed.

For the assay, the system named is CD8F1 mice, subcutaneous mammary adenocarcinoma, T/C%. As to the kind of experiment: NCI In Vivo Anticancer Drug Screen. Data for tumor model Mammary Adenocarcinoma CD8F1 (subcutaneous) in CD8F1. The conditions noted are these: higher = larger tumour. In outline:
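Ratio of treated to vehicle-control outcome, based on either survival or tumor size, in mice bearing transplantable tumors given the test compound.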

The mark [1] stands for this setting: endpoint: median tumor weight change, dose: 62.0 mg/kg/injection, schedule: Q01DX001 (ip), vehicle: saline with Tween-80.
[2] abbreviates: endpoint: median tumor weight change, dose: 62.5 mg/kg/injection, schedule: Q01DX001 (ip), vehicle: saline with Tween-80.
Setting [3] is: endpoint: median tumor weight change, dose: 250.0 mg/kg/injection, schedule: Q01DX001 (ip), vehicle: saline with Tween-80.
The mark [4] stands for this setting: endpoint: median tumor weight change, dose: 500.0 mg/kg/injection, schedule: Q01DX001 (ip), vehicle: saline with Tween-80.
[5] abbreviates: endpoint: median tumor weight (est.), dose: 6.25 mg/kg/injection, schedule: Q07DX005 (ip), vehicle: saline with Tween-80.
Setting [6] is: endpoint: median tumor weight (est.), dose: 12.5 mg/kg/injection, schedule: Q07DX005 (ip), vehicle: saline with Tween-80.
Setting [7] is: endpoint: median tumor weight (est.), dose: 25.0 mg/kg/injection, schedule: Q07DX005 (ip), vehicle: saline with Tween-80.
The mark [8] stands for this setting: endpoint: median tumor weight (est.), dose: 12.5 mg/kg/injection, schedule: Q07DX005 (ip), vehicle: saline.
Where [9] appears, read: endpoint: median tumor weight (est.), dose: 25.0 mg/kg/injection, schedule: Q07DX005 (ip), vehicle: saline.
Setting [10] is: endpoint: median tumor weight (est.), dose: 50.0 mg/kg/injection, schedule: Q07DX005 (ip), vehicle: saline with Tween-80.
The mark [11] stands for this setting: endpoint: median tumor weight (est.), dose: 100.0 mg/kg/injection, schedule: Q07DX005 (ip), vehicle: saline.

For the compound `O=C(O)C1CSCN1` (configuration not stated), the T/C is 79 % of control (endpoint: median tumor weight change, dose: 12.5 mg/kg/injection, schedule: Q01DX001 (ip), vehicle: water); 111 % of control (endpoint: median tumor weight change, dose: 25.0 mg/kg/injection, schedule: Q01DX001 (ip), vehicle: water); 173 % of control (endpoint: median tumor weight change, dose: 50.0 mg/kg/injection, schedule: Q01DX001 (ip), vehicle: water); 90 % of control (endpoint: median tumor weight change, dose: 100.0 mg/kg/injection, schedule: Q01DX001 (ip), vehicle: water); 59 % of control (endpoint: median tumor weight change, dose: 200.0 mg/kg/injection, schedule: Q01DX001 (ip), vehicle: water).
With `CC[C@@]1(O)C[C@H](OC2CC(N(C)C)C(OC3CC(O)C(O[C@@H]4O[C@@H](C)C(=O)C=C4N)C(C)O3)C(C)O2)c2c(cc3c(c2O)C(=O)c2c(O)ccc(O)c2C3=O)[C@H]1C(=O)OC` (some centres not stated), the T/C runs as follows: (endpoint: median tumor weight (est.), dose: 0.09 mg/kg/injection, schedule: Q07DX005 (ip), vehicle: suspension in saline) 180 % of control; (endpoint: median tumor weight (est.), dose: 0.18 mg/kg/injection, schedule: Q07DX005 (ip), vehicle: suspension in saline) 168 % of control; (endpoint: median tumor weight (est.), dose: 0.37 mg/kg/injection, schedule: Q07DX005 (ip), vehicle: suspension in saline) 240 % of control; (endpoint: median tumor weight (est.), dose: 0.38 mg/kg/injection, schedule: Q07DX005 (ip), vehicle: suspension in saline) 37 % of control; (endpoint: median tumor weight (est.), dose: 3.0 mg/kg/injection, schedule: Q07DX005 (ip), vehicle: suspension in saline) 50 % of control and 69 % of control; (endpoint: median tumor weight (est.), dose: 1.0 micrograms/kg/injection, schedule: Q07DX005 (ip), vehicle: Klucel (hydroxypropylcellulose) (HPC)) 106 % of control. Under “endpoint: median tumor weight (est.), dose: 4.0 micrograms/kg/injection, schedule: Q07DX005 (ip), vehicle: Klucel (hydroxypropylcellulose) (HPC)”, the T/C was 123 % of control.
In the case of `O=[n+]1c2ccccc2n([O-])c2ccccc21.[Cl][Ni][Cl]`, the T/C (endpoint: median tumor weight change, dose: 15.63 mg/kg/injection, schedule: Q01DX001 (ip), vehicle: saline with Tween-80) was 87 % of control and the T/C (endpoint: median tumor weight change, dose: 31.25 mg/kg/injection, schedule: Q01DX001 (ip), vehicle: saline with Tween-80) was 52 % of control.
For `Cc1cc(NCCCCCCCCNc2cc(C)nc3cc(N(C)C)ccc23)c2ccc(N(C)C)cc2n1`, the T/C by setting is: (endpoint: median tumor weight change, dose: 31.0 mg/kg/injection, schedule: Q01DX001 (ip), vehicle: distilled water + Tween-80) 35 % of control; (endpoint: median tumor weight change, dose: 62.5 mg/kg/injection, schedule: Q01DX001 (ip), vehicle: distilled water + Tween-80) 47 % of control and 54 % of control; (endpoint: median tumor weight change, dose: 125.0 mg/kg/injection, schedule: Q01DX001 (ip), vehicle: distilled water + Tween-80 + alcohol) 105 % of control; (endpoint: median tumor weight change, dose: 250.0 mg/kg/injection, schedule: Q01DX001 (ip), vehicle: distilled water + Tween-80 + alcohol) 104 % of control.
Take `Cc1cccc(-[n+]2noc(N)n2)c1`: the T/C is 80 % of control (endpoint: median tumor weight change, dose: 62.0 mg/kg/injection, schedule: Q01DX001 (ip), vehicle: water) and 51 % of control (endpoint: median tumor weight change, dose: 125.0 mg/kg/injection, schedule: Q01DX001 (ip), vehicle: water).
Turning to `O=Cc1c(O)c2ccccc2[nH]c1=O`, the T/C was 112 % of control under setting [1]; 69 % of control under setting [2]; 61 % of control and 67 % of control under setting [3]; 55 % of control under setting [4].
In the case of `O=C1C2CC=CCC2C(=O)N1SC(Cl)(Cl)Cl` (configuration not stated), the T/C was 78 % of control (endpoint: median tumor weight (est.), dose: 3.12 mg/kg/injection, schedule: Q07DX005 (ip), vehicle: saline with Tween-80); 70 % of control under setting [5]; 89 % of control under setting [6]; 74 % of control under setting [7].
In the case of `CSc1ncc2ncn(C3OC(CO)C(O)C3O)c2n1` (configuration not stated), the T/C is, setting by setting: (endpoint: median tumor weight change, dose: 250.0 mg/kg/injection, schedule: Q01DX001 (ip), vehicle: Klucel (hydroxypropylcellulose) (HPC)) 92 % of control; (endpoint: median tumor weight change, dose: 500.0 mg/kg/injection, schedule: Q01DX001 (ip), vehicle: Klucel (hydroxypropylcellulose) (HPC)) 110 % of control; (endpoint: median tumor weight change, dose: 1000.0 mg/kg/injection, schedule: Q01DX001 (ip), vehicle: Klucel (hydroxypropylcellulose) (HPC)) 57 % of control.
Consider `O=CC(O)C(O)C(O)C(O)C(=O)O.[NH-]C1CCCCC1[NH-].[Pt+2]` (configuration not stated), for which the T/C (endpoint: median tumor weight (est.), dose: 6.25 mg/kg/injection, schedule: Q07DX005 (ip), vehicle: suspension in saline) was 48 % of control; the T/C (endpoint: median tumor weight (est.), dose: 12.5 mg/kg/injection, schedule: Q07DX005 (ip), vehicle: suspension in saline) was 7 % of control and 32 % of control; the T/C (endpoint: median tumor weight (est.), dose: 25.0 mg/kg/injection, schedule: Q07DX005 (ip), vehicle: suspension in saline) was 6 % of control.
For `COc1cc(O)c2c(O)c3c(c4c2c1[C@]1(C4)C(C)=CCCC1(C)C)[C@H](O)[C@@]1(O)CC(=O)C(C(N)=O)=C(O)[C@@]1(O)C3=O`, the T/C under setting [5] is 56 % of control; the T/C (endpoint: median tumor weight (est.), dose: 6.25 mg/kg/injection, schedule: Q07DX005 (ip), vehicle: saline) is 47 % of control; the T/C under setting [6] was 92 % of control; the T/C under setting [8] is 58 % of control; the T/C under setting [7] was 95 % of control; the T/C under setting [9] is 87 % of control. The T/C runs as follows: under setting [10], 89 % of control; (endpoint: median tumor weight (est.), dose: 50.0 mg/kg/injection, schedule: Q07DX005 (ip), vehicle: saline) 81 % of control; under setting [11], 37 % of control.
For the compound `CC[PH+](CC)CC[S-].CC[PH+](CC)CC[S-].[Au+].[Au+]`, the T/C (endpoint: median tumor weight change, dose: 100.0 mg/kg/injection, schedule: Q01DX001 (ip), vehicle: Klucel (hydroxypropylcellulose) (HPC)) was 29 % of control and 34 % of control; the T/C (endpoint: median tumor weight change, dose: 200.0 mg/kg/injection, schedule: Q01DX001 (ip), vehicle: Klucel (hydroxypropylcellulose) (HPC)) is 24 % of control.
As to `CC(=O)OCC1(C)NC(=O)c2ccccc2O1` (configuration not stated), the T/C is 18 % of control under setting [6]; 40 % of control under setting [7]; 18 % of control under setting [10]; 37 % of control (endpoint: median tumor weight (est.), dose: 100.0 mg/kg/injection, schedule: Q07DX005 (ip), vehicle: saline with Tween-80); 34 % of control (endpoint: median tumor weight (est.), dose: 200.0 mg/kg/injection, schedule: Q07DX005 (ip), vehicle: saline with Tween-80); 24 % of control (endpoint: median tumor weight (est.), dose: 400.0 mg/kg/injection, schedule: Q07DX005 (ip), vehicle: saline with Tween-80).
For `N=[N+]=CC(=O)OCC(N)C(=O)O` (configuration not stated), the T/C was 76 % of control (endpoint: median tumor weight (est.), dose: 6.25 mg/kg/injection, schedule: Q07DX005 (ip), vehicle: clinical formulation); 58 % of control and 79 % of control (endpoint: median tumor weight (est.), dose: 6.25 mg/kg/injection, schedule: Q07DX005 (ip), vehicle: water); 71 % of control (endpoint: median tumor weight (est.), dose: 12.5 mg/kg/injection, schedule: Q07DX005 (ip), vehicle: clinical formulation); 32 % of control (endpoint: median tumor weight (est.), dose: 25.0 mg/kg/injection, schedule: Q07DX005 (ip), vehicle: clinical formulation); 29 % of control (endpoint: median tumor weight (est.), dose: 50.0 mg/kg/injection, schedule: Q07DX005 (ip), vehicle: clinical formulation); 65 % of control (endpoint: median tumor weight (est.), dose: 50.0 mg/kg/injection, schedule: Q07DX005 (ip), vehicle: water).
`C/C=C/C=C1/OC(C)=C(C(C)=O)C1=O`: the T/C (endpoint: median tumor weight change, dose: 125.0 mg/kg/injection, schedule: Q01DX001 (ip), vehicle: saline with Tween-80) was 94 % of control and 104 % of control; the T/C under setting [3] was 64 % of control.
Consider `OCC1OC(n2cnc3c(Cl)ncnc32)C(O)C1O` (configuration not stated), for which the T/C is, setting by setting: under setting [8], 90 % of control; under setting [9], 26 % of control; under setting [11], 28 % of control; (endpoint: median tumor weight (est.), dose: 200.0 mg/kg/injection, schedule: Q07DX005 (ip), vehicle: saline) 71 % of control; (endpoint: median tumor weight (est.), dose: 400.0 mg/kg/injection, schedule: Q07DX005 (ip), vehicle: saline) 115 % of control.
`O=S(CCCl)CCCl`: the T/C (endpoint: median tumor weight (est.), dose: 1.56 mg/kg/injection, schedule: Q07DX005 (ip), vehicle: Klucel (hydroxypropylcellulose) (HPC)) is 75 % of control; the T/C (endpoint: median tumor weight (est.), dose: 3.12 mg/kg/injection, schedule: Q07DX005 (ip), vehicle: Klucel (hydroxypropylcellulose) (HPC)) is 100 % of control; the T/C (endpoint: median tumor weight (est.), dose: 6.25 mg/kg/injection, schedule: Q07DX005 (ip), vehicle: Klucel (hydroxypropylcellulose) (HPC)) is 230 % of control; the T/C (endpoint: median tumor weight (est.), dose: 12.5 mg/kg/injection, schedule: Q07DX005 (ip), vehicle: Klucel (hydroxypropylcellulose) (HPC)) is 91 % of control.
For `CN=S(=O)(OCCCCCOS(=O)(=NC)c1ccccc1)c1ccccc1` (configuration not stated), the T/C reads like this: under setting [1], 121 % of control; under setting [2], 59 % of control; under setting [3], 63 % of control and 83 % of control; under setting [4], 20 % of control.
